Entries after “also recorded” stand apart in the source; their conditions may differ. In the oligonucleotide strings, read from the 5' end, every base follows the letter of its sugar. An asterisk marks phosphorothioate; unmarked linkages are phosphodiester. Other units and linkages are bracketed, terminal groups are in braces. A string of capitals states the bases alone. d = 2'-deoxy (DNA)
Columns and labels:
human PBMC [1] = experiment: Induction of IL-10 from healthy human PBMC (ELISpot); format: cell-based; details: PBMC from 5 healthy individuals, 48 hours
Protocol: (§1) Whole blood was obtained from healthy blood donors. PBMCs were prepared from 30 ml whole blood according to the following protocol:
(§2) 30 ml blood was transferred directly into heparinized tubes. All blood was transferred into one 50 ml Falcon tube and PBS added up to 50 ml. 15 ml Ficoll (17-1440-03, obtained from Amersham Bioscience AB, Uppsala) was then added into two falcon tubes (50 ml). The PBS-treated blood was then carefully added on the top of to Ficoll, 25 ml to each tube. The tubes were then centrifuged 25 min at 1700 RPM at RT (20° C.).
(§3) RPMIc medium was prepared under sterile conditions, using a 0.22 uM filter. (RPMIc denotes a RPMI 1640 culture medium (R0883, Sigma) supplemented with 5% heat-inactivated (56° C.,1 h) FCS 1.5 mM L-glutamine (G7513, Sigma), 100 U/ml penicillin and 100 ug/ml streptomycin, PEST (P0781, Sigma), hepes (H0887, Sigma), and gentamycin (G1272, Sigma)).
(§4) The interphase was carefully pipetted from the two tubes into 2x 50mi Falcon tubes. PBS was added up to 50 ml in each tube, and the tubes centrifuged for 10 min at 1700 RPM (4° C.).
(§5) The supernatant was discarded, and PBS added to 30 ml, whereupon the tubes were centrifuged at 10 min at 1500 RPM (4° C.). Again, the supernatant was discarded, 10 ml PBS added, and the pellets from the two falcon tubes pooled.
(§6) The cells were counted and left in PBS, then centrifuged at 1200 RPM, 10 min. Medium was then added to obtain the concentration of interest, and the cells counted (16 squares)×3. The mean value was calculated and multiplied with the dilution factor×10^4=cells/ml. Diluting the cells to 10 million/ml will result in 500.000 cells/50 ul medium, 6 million/ml will be 300.000/50 ul medium.
(§7) Elispot assays where performed according to the manufactures recommended guidelines (MabTech) and the plates were analyzed using an AID ELISpot reader system (Autoimmun Diagnostika GmbH, Strassberg, Germany).
Approximately 500,000 PBMC cells per well, derived from blood from healthy human donors, were incubated for 48 hours in the presence of the different oligonucleotides. Specifically, SEQ.ID.NO 1, SEQ.ID.NO 2, SEQ.ID.NO 6 and SEQ.ID.NO 8. Following incubation, the wells were developed according to the kit supplier's recommendations and the average number of positive cells producing IL-10 per well were counted using an AID ELISpot reader system, (Autoimmun Diagnostika GmbH, Strassberg, Germany).

human PBMC [2] = experiment: Induction of IFN-gamma from healthy human PBMC (ELISpot); format: cell-based; details: PBMC from 7 healthy individuals, 48 hours, FIG. 12
Protocol: as §1, §2
as §3, with “Sigma)). […]” for “Sigma)).”
The cells were counted and left in PBS, then centrifuged at 1200 RPM, 10 min. Medium was then added to obtain the concentration of interest, and the cells counted (16 squares)×3. The mean value was calculated and multiplied with the dilution factor×10^4=cells/ml. […]
Elispot assays where performed according to the manufactures recommended guidelines (MabTech) and the plates were analyzed using an AID ELISpot reader system (Autoimmun Diagnostika GmbH, Strassberg, Germany). […]

human PBMC [3] = experiment: Induction of IFN-alpha from healthy human PBMC (ELISpot); format: cell-based; details: PBMC from 10 healthy individuals, 48 hours
Protocol: as §1, §2, §3, §4, §5, §6, §7
For this assay again 500,000 PBMC cells per well, derived from healthy human blood were incubated for 48 hours in the presence of the different oligonucleotides. Specifically, SEQ.ID.NO 1, SEQ.ID.NO 2, and SEQ.ID.NO 8. Following incubation, the wells were developed according to the kit suppliers recommendations and the average number of positive cells producing IFN-alpha per well were determined using an AID ELISpot reader.

human PBMC [4] = experiment: IL-10 induction from healthy human PBMC by SEQ.ID.NO 1 after dexamethasone pre-incubation (ELISA); format: cell-based
Protocol: ELISA assays where performed according to the manufactures recommended guidelines (R&D systems). Plates were analyzed using AID ELISpot reader system (Autoimmun Diagnostika GmbH, Strassberg Germany).
For this assay again 500,000 PBMC cells per well, derived from blood from healthy human donors, were incubated for 12 hours in the presence of various concentrations of dexamethasone, after which, the cells were washed and fresh medium as added. The cells were then allowed to further incubate in the presence of either 25 uM or 100 uM of SEQ.ID.NO 1 for an additional 24 hours after which levels of IL-10 were measured using a commercial available IL-10 ELISA kit.

[5] = test system: steroid refractory/dependent IBD patients (ulcerative colitis and Crohn's disease); experiment: Human pilot proof of concept study in steroid resistant/dependent patients; format: in vivo; details: for Clinical response at week 1, responders: 5/7 patients, on concomitant steroid therapies
Protocol: A small pilot study was conducted in steroid refractory/dependent IBD patients with the following objectives.
Primary objective: To assess the safety issues regarding the use of the DNA based oligonucleotide denoted as SEQ.ID.NO.1 in ulcerative colitis and Crohn's disease patients.
Secondary objective: To explore the clinical efficacy as determined by endoscopic and clinical remission/improvement rates, histological improvement and changes in clinical laboratory parameters.
The study was placebo controlled; double blinded single dose and considered patients that were unresponsive to corticosteroids or corticosteroid dependent who where on concomitant steroid therapies.
Doses levels used were 3 mg and 30 mg given as a single rectal administration

[6] = test system: patients with mild to moderately active ulcerative colitis; experiment: Clinical phase II study in ulcerative colitis patients; format: in vivo, human; details: for Clinical response at Week 1: No, n (%) / Clinical response at Week 1: Yes, n (%): single rectal dose, ITT/Safety population; for clinical response rate at week 1, all receiving active drug: all four dose levels pooled (26/119)
Protocol: A large 150 patient study performed in ulcerative colitis patients who were neither on concomitant steroid therapies nor were described as being steroid refractory/dependent.
Primary objective: To evaluate the ability of each of the four dose levels (0.3 mg, 3 mg, 30 mg and 100 mg) of oligonucleotide SEQ.ID.NO.1 as an anti-inflammatory therapy to induce clinical remission in patients with mild to moderately active ulcerative colitis (UC), as compared with placebo.
Secondary objective: To assess the tolerability of single rectal doses of SEQ.ID.NO.1 oligonucleotide and to further evaluate the efficacy and safety of SEQ.ID.NO.1 oligonucleotide at four dose levels and to assess the pharmacokinetics of SEQ.ID.NO.1 oligonucleotide after rectal administration, as compared to placebo.

[7] = single rectal administration 3 mg or 30 mg

For “5′-G*G*A*ACAGTTCGTCCAT*G*G*C-3′ (DNA dG*dG*dA*dAdCdAdGdTdTdCdGdTdCdCdAdT*dG*dG*dC) [SEQ.ID.NO 1, (Hu p65)AS, CpG-containing ODN; * marks phosphorothioate linkage, others phosphodiester]”, which “concentration from which IL-10 producing cells are induced” value (human PBMC [1]) is on record?
The value was “around 5 uM”.

What about the “induction of IL-10 producing cells” value (human PBMC [1]; FIG. 11) of the same substance?
Its value is “clear potential to induce IL-10 producing cells”.

What about the “concentration at which induction of IFN-gamma becomes apparent” value (human PBMC [2]) of the same substance?
The value was “around 25 uM”.

What about the “concentration at which induction of IFN-alpha starts / is apparent” value (human PBMC [3]) of the same substance?
Its value is 1 µM.

What about the “induction of IFN-alpha producing cells” value (human PBMC [3]; FIG. 13) of the same substance?
The value was “clear inducing potential”.

And the IL-10 production (human PBMC [4]; 25 uM SEQ.ID.NO 1 for 24 hours after 12 hours prior incubation with dexamethasone)?
The IL-10 production was “little production of IL-10”.

And the IL-10 production (human PBMC [4]; 100 uM SEQ.ID.NO 1 for 24 hours after 12 hours prior incubation with dexamethasone (most apparent at 10^−10 M))?
Its IL-10 production is “dramatic increase in the amount of IL-10 produced; also recorded: levels higher than either mono treatment alone”.

What about the “time to response of responding patients” value ([5]; after single rectal administration) of the same substance?
The value was “within a week”.

What about the “patients still in remission and steroid free” value ([5]; of the 7 patients that received the drug) of the same substance?
Its value is “two from the 7 patients”.

What about the serious adverse events [5, 7] of the same substance?
The serious adverse events was “no serious adverse events were recorded”.

And the “Clinical response at week 1, responders” value [5, 7]?
The value was 71%.

And the “Clinical response at week 1, responders” value ([5]; single rectal administration 3 mg or 30 mg, listed as Active)?
The value was 71%.

And the efficacy ([5]; single rectal administration, 3 mg and 30 mg dose groups)?
Its efficacy is “good efficacy in both dose groups”.

What about the “Clinical response at Week 1: No, n (%)” value ([6]; 0.3 mg (N = 31)) of the same substance?
The value was 23 (74.2) n (%).

What about the “Clinical response at Week 1: Yes, n (%)” value ([6]; 0.3 mg (N = 31)) of the same substance?
The value was 8 (25.8) n (%).

What about the “Clinical response at Week 1: No, n (%)” value ([6]; 3 mg (N = 29)) of the same substance?
The value was 23 (79.3) n (%).

And the “Clinical response at Week 1: Yes, n (%)” value ([6]; 3 mg (N = 29))?
The value was 6 (20.7) n (%).

And the “Clinical response at Week 1: No, n (%)” value ([6]; 30 mg (N = 30))?
Its value is 23 (76.7) n (%).

And the “Clinical response at Week 1: Yes, n (%)” value ([6]; 30 mg (N = 30))?
The value was 7 (23.3) n (%).

And the “Clinical response at Week 1: No, n (%)” value ([6]; 100 mg (N = 29))?
The value was 24 (82.8) n (%).

What about the “Clinical response at Week 1: Yes, n (%)” value ([6]; 100 mg (N = 29)) of the same substance?
The value was 5 (17.2) n (%).

What about the “clinical response rate at week 1, all receiving active drug” value [6] of the same substance?
Its value is 22%.

And the “clinical response rate at week 1, all receiving active drug” value ([6]; listed as Active)?
The value was 22%.

What about the “induction of clinical, endoscopic or histopathological remissions or responses” value ([6]; one single dose from 0.3 to 100 mg, over a 12 week period) of the same substance?
The value was “could not confirm”.

And the safety profile ([6]; single rectal doses 0.3 to 100 mg)?
The safety profile was “good safety profile”.

Source: patent publication US8895522B2, “Composition and method for the prevention, treatment and/or alleviation of an inflammatory disease” (Index Pharmaceuticals AB, priority 2005, dated 2014)
